These results are taken from patent US7968733B2, “Pyrrolidine analogue for preventing neurogenic pain and method for production thereof” (priority 2006, dated 2011).

Experiment [1] has as its system acromelic acid-induced allodynia. Nature of the experiment: Evaluation of allodynia-inhibitory activity (intrathecal co-administration with acromelic acid). It counts as in vivo, ddY-mouse. The settings on record: for allodynia-inhibitory activity: intrathecal, 5 μl solution with 1×10^−15 gram of acromelic acid plus pyrrolidine derivative, ddY-mouse male, allodynia scored 0 to 2 every 5 minutes for 50 minutes, percent of control, FIGS. 1-3; for dose suppressing allodynia induction with equal potency, relative to the compounds of Comparative Examples 5 and 6: fraction of the doses of Comparative Examples 5 and 6, intrathecal with acromelic acid, ddY-mouse, FIG. 3. How it is done:
In the evaluation, according to the method of Hylden & Wilcox (Hylden, J. L. K. and Wilcox, G. L., Intrathecal morphine in mice: a new technique, Eur. J. Pharmacol, 67 (1980) 313-316.), 5 μl of a solution containing 1×10^−15 gram of acromelic acid and a different dose of pyrrolidine derivative was administrated to ddY-mouse (male, weight 22±2 g) under an unanesthetized condition. One experimental group consisted of 6 mice, and a solution containing 1×10^−15 gram of acromelic acid (5 μl ) was administrated in control groups. After the compound was intrathecally administered, allodynia was assessed once every 5 minutes for 50 minutes by scoring the response in rank order from 0 to 2, and expressed as a percent of the values in control groups, similarly to the method of Yaksh & Harty et al. (Yaksh, T. L. and Harty, G. J., Pharmacology of the allodynia in rats evoked by high dose intrathecal morphine, J. Pharmacol. Exp. Ther., 244 (1988) 501-507.). Allodynic response was ranked as follows: 0, no response; 1, mild squeaking with attempts to move away from the stroking probe; 2, vigorous squeaking evoked by the stroking probe, biting at the probe or strong efforts to escape.

Experiment [2] relates to allodynia. The settings on record: intrathecal administration in mice; Non-patent documents 1 and 4; cited from earlier work.

In the case of `O=C(O)C[C@@H]1[C@@H](C(=O)O)NC[C@H]1Oc1ccc(C(=O)O)cc1` [Example 1, (2S,3R,4S)-3-carboxymethyl-4-(4-carboxyphenoxy)-pyrrolidine-2-carboxylic acid], the allodynia-inhibitory activity entry in experiment [1] is “strong allodynia-inhibitory activity”.

Regarding `O=C(O)C[C@@H]1[C@@H](C(=O)O)NC[C@H]1Oc1ccccc1C(=O)O` [Example 5, (2S,3R,4S)-3-(carboxymethyl)-4-(2-carboxyphenoxy)-pyrrolidine-2-carboxylate], in experiment [1], the allodynia-inhibitory activity entry is “strong allodynia-inhibitory activity”.

`Cc1ccc(O[C@@H]2CN[C@H](C(=O)O)[C@H]2CC(=O)O)c(C(=O)O)c1` [Example 8, (2S,3R,4S)-3-carboxymethyl-4-(2-carboxy-4-methyl-phenoxy)pyrrolidine-2-carboxylate]: in experiment [1], the “dose suppressing allodynia induction with equal potency, relative to the compounds of Comparative Examples 5 and 6” value is “approximately one-hundredth”; the allodynia-inhibitory activity result is given as “strong allodynia-inhibitory activity”.

For `O=C(O)c1ccc(O[C@@H]2CN[C@H](C(=O)O)C2)cc1` [Example 9, (2S,4S)-4-(4-carboxyphenoxy)pyrrolidine-2-carboxylate], in experiment [1], the allodynia-inhibitory activity entry was “strong allodynia-inhibitory activity”.

On to `COc1ccc(S[C@H]2CN[C@H](C(=O)O)[C@H]2CC(=O)O)cc1` [Example 13, (2S,3R,4R)-3-(carboxymethyl)-4-(4-methoxyphenylthio)-pyrrolidine-2-carboxylate], for which the allodynia-inhibitory activity entry in experiment [1] is “strong allodynia-inhibitory activity”.

As to `Cc1ccc(S[C@H]2CN[C@H](C(=O)O)[C@H]2CC(=O)O)cc1` [Example 14, (2S,3R,4R)-3-(carboxymethyl)-4-(4-methylphenylthio)-pyrrolidine-2-carboxylate], in experiment [1], the “dose suppressing allodynia induction with equal potency, relative to the compounds of Comparative Examples 5 and 6” value is “approximately one-hundredth”; the allodynia-inhibitory activity result is reported as “strong allodynia-inhibitory activity”.

In the case of `O=C(O)C[C@H]1[C@@H](Sc2ccccc2)CN[C@@H]1C(=O)O` [Example 18, (2S,3R,4R)-3-carboxy-methyl-4-phenylthiopyrrolidine-2-carboxylate], in experiment [1], the allodynia-inhibitory activity result was “strong allodynia-inhibitory activity”.

Regarding `Cc1ccc(S[C@H]2CN[C@H](C(=O)O)C2)cc1` [Example 19, (2S,4R)-4-(4-methylphenylthio)pyrrolidine-2-carboxylate], in experiment [1], the “dose suppressing allodynia induction with equal potency, relative to the compounds of Comparative Examples 5 and 6” value is reported as “approximately one-hundredth”; the allodynia-inhibitory activity entry was “strong allodynia-inhibitory activity”.

As for `[N-]=[N+]=Nc1ccc(O[C@H]2CN[C@H](C(=O)O)[C@H]2CC(=O)O)c(I)c1` [proline analogue (a)], the allodynia-inducing activity entry in experiment [2] is recorded as “the same degree of allodynia-inducing activity as that of acromelic acids”.

For the molecule acromelic acids, the allodynia-inducing activity entry in experiment [2] is on record as “induce severe allodynia”.
